Each block holds one compound with its values, some of them ahead of it. Activity calls are given as the source filed them. No cut-off for these calls is given here.
Experiments:
[1] = biological target: Dual specificity tyrosine-phosphorylation-regulated kinase 1A (Homo sapiens, UniProt Q13627); test: Inhibition of DYRK1A (unknown origin) using HT-497 as substrate preincubated with compound followed by substrate addition and measured after 30 mins in the presence of ATP by ELISA analysis
[2] = Oral bioavailability in Sprague-Dawley rat at 100 mg/kg; format: ADME, organism-based; conditions: in vivo
[3] = Bioavailability in CF-1 mouse at 163.8 micromol/kg, IG measured upto 720 mins; format: ADME, organism-based; conditions: in vivo, po, 163.8 µmol/kg
[4] = tested on: Mus musculus; test: Anti-inflammatory activity in MOG (35 to 55 residues)-induced experimental autoimmune encephalomyelitis mouse model assessed as reversal of clinical scores at 1 mg/kg, INH administered once daily for 25 days; format: functional, organism-based; conditions: time 25.0 day
[5] = organism: Mus musculus; test: Anti-inflammatory activity in MOG (35 to 55 residues)-induced experimental autoimmune encephalomyelitis mouse model assessed as reduction in spinal cord inflammation severity score by H&E staining based light microscopic analysis; format: functional, organism-based
[6] = organism: Mus musculus; test: Anti-inflammatory activity in MOG (35 to 55 residues)-induced experimental autoimmune encephalomyelitis mouse model assessed as reduction in spinal cord demyelination severity score by Luxol fast blue staining based light microscopic analysis; format: functional, organism-based
[7] = organism: Mus musculus; test: Anti-inflammatory activity in MOG (35 to 55 residues)-induced experimental autoimmune encephalomyelitis mouse model assessed as reduction in spinal cord axonal neurodegeneration severity score by Bielschowsky silver staining based light microscopic analysis; format: functional, organism-based
[8] = tested on: Mus musculus; test: Anti-inflammatory activity in MOG (35 to 55 residues)-induced experimental autoimmune encephalomyelitis mouse model assessed as reversal of clinical scores at 15 mg/kg, INH administered twice daily for 25 days; format: functional, organism-based; conditions: time 25.0 day
[9] = tested on: Mus musculus; test: Anti-inflammatory activity in MOG (35 to 55 residues)-induced experimental autoimmune encephalomyelitis mouse model assessed as reduction in brain IFNgamma level at 15 mg/kg, INH; format: functional; set-up: scale not given: the % may be the effect or the level left
[10] = tested on: Mus musculus; test: Anti-inflammatory activity in MOG (35 to 55 residues)-induced experimental autoimmune encephalomyelitis mouse model assessed as reduction in brain IL-17 level at 15 mg/kg, INH; format: functional; set-up: scale not given: the % may be the effect or the level left
[11] = tested on: Mus musculus; test: Anti-inflammatory activity in MOG (35 to 55 residues)-induced experimental autoimmune encephalomyelitis mouse model assessed as reduction in brain TNFalpha level at 15 mg/kg, INH; format: functional, organism-based
[12] = tested on: Mus musculus; test: Anti-inflammatory activity in MOG (35 to 55 residues)-induced experimental autoimmune encephalomyelitis mouse model assessed as reduction in spinal cord inflammation severity score at 15 mg/kg, INH by H&E staining based light microscopic analysis; format: functional, organism-based
[13] = tested on: Mus musculus; test: Anti-inflammatory activity in MOG (35 to 55 residues)-induced experimental autoimmune encephalomyelitis mouse model assessed as reduction in spinal cord demyelination severity score at 15 mg/kg, INH by Luxol fast blue staining based light microscopic analysis; format: functional, organism-based
[14] = tested on: Mus musculus; test: Anti-inflammatory activity in MOG (35 to 55 residues)-induced experimental autoimmune encephalomyelitis mouse model assessed as reduction in spinal cord axonal neurodegeneration severity score at 15 mg/kg, INH by Bielschowsky silver staining based light microscopic analysis; format: functional, organism-based

- IC50 [1]: 145 nM
Compound: O=C(O[C@@H]1Cc2c(O)cc(O)cc2O[C@H]1c1cc(O)c(O)c(O)c1)c1cc(O)c(O)c(F)c1

- IC50 [1]: 107 nM
Compound: O=C(O[C@@H]1Cc2c(O)cc(O)cc2O[C@H]1c1cc(O)c(O)c(O)c1)c1cc(O)c(O)cc1F

- IC50 [1]: 429 nM
Compound: COc1cc(C(=O)O[C@@H]2Cc3c(O)cc(O)cc3O[C@@H]2c2cc(O)c(O)c(O)c2)cc(O)c1O

- IC50 [1]: 236 nM
Compound: O=C(O[C@@H]1Cc2c(O)cc(O)cc2O[C@H]1c1cc(O)c(O)c(O)c1)c1ccc(O)c(O)c1

- IC50 [1]: 25100 nM
Compound: COc1c(O)cc(C(=O)O[C@@H]2Cc3c(O)cc(O)cc3O[C@H]2c2cc(O)c(O)c(O)c2)cc1O

- IC50 [1]: 553 nM
Compound: Cc1c(C(=O)O[C@@H]2Cc3c(O)cc(O)cc3O[C@H]2c2cc(O)c(O)c(O)c2)ccc(O)c1O

- IC50 [1]: 153 nM
Compound: O=C(O[C@@H]1Cc2c(O)cc(O)cc2O[C@H]1c1cc(O)c(O)cc1F)c1cc(O)c(O)c(O)c1

- IC50 [1]: 172 nM
Compound: O=C(O[C@@H]1Cc2c(O)cc(O)cc2O[C@H]1c1cc(O)c(O)c(O)c1)c1cc(O)c(O)cc1O

- IC50 [1]: 296 nM
Compound: Cc1c([C@@H]2Oc3cc(O)cc(O)c3C[C@H]2OC(=O)c2cc(O)c(O)c(O)c2)cc(O)c(O)c1O

- IC50 [1]: 220 nM
Compound: O=C(O[C@@H]1Cc2c(O)cc(O)cc2O[C@H]1c1ccc(O)c(O)c1)c1cc(O)c(O)c(O)c1 [(-)-CATECHINGALLATE]

- IC50 [1]: 5800 nM
Compound: COc1c(O)cc([C@@H]2Oc3cc(O)cc(O)c3C[C@H]2OC(=O)c2cc(O)c(O)c(O)c2)cc1O

- IC50 [1]: 432 nM
Compound: O=C(O[C@@H]1Cc2c(O)cc(O)cc2O[C@H]1c1cc(O)c(O)c(O)c1)c1cc(O)c(O)cc1C(F)(F)F

- IC50 [1]: 523 nM
Compound: O=C(O[C@@H]1Cc2c(O)cc(O)cc2O[C@@H]1c1ccc(O)c(O)c1)c1cc(O)c(O)c(O)c1 [EPICATECHIN GALLATE]

More lines, now with the values behind:

Compound: O=C(O[C@@H]1Cc2c(O)cc(O)cc2O[C@H]1c1cc(O)c(O)c(O)c1F)c1cc(O)c(O)c(O)c1
- IC50 [1]: 60 nM

Compound: O=C(O[C@@H]1Cc2c(O)cc(O)cc2O[C@H]1c1ccc(O)c(O)c1)c1cc(O)c(O)c(O)c1F (racemic)
- IC50 [1]: 74 nM

Compound: O=C(O[C@@H]1Cc2c(O)cccc2O[C@H]1c1cc(O)c(O)c(O)c1)c1cc(O)c(O)c(O)c1 (racemic)
- IC50 [1]: 212 nM

Compound: O=C(O[C@@H]1Cc2ccccc2O[C@H]1c1cc(O)c(O)c(O)c1)c1cc(O)c(O)c(O)c1 (racemic)
- IC50 [1]: 422 nM

Compound: O=C(O[C@@H]1Cc2c(O)cc(O)cc2O[C@@H]1c1cc(O)c(O)c(O)c1)c1cc(O)c(O)c(O)c1 [EPIGALOCATECHIN GALLATE]
- bioavailability [2]: ≤ 5%
- bioavailability [3]: 12%
- IC50 [1]: 232 nM

Compound: CCCCCCCCc1ccc(CCC(N)(CO)CO)cc1
- Activity [4]: Active
- Activity [5]: Active
- Activity [6]: Active
- Activity [7]: Active

Compound: O=C(O[C@@H]1Cc2ccccc2C[C@H]1c1cc(O)c(O)c(O)c1)c1cc(O)c(O)c(O)c1 (racemic)
- IC50 [1]: 1050 nM

Compound: O=C(O[C@@H]1Cc2c(O)cc(O)cc2O[C@H]1c1cc(O)c(O)c(O)c1)c1cc(O)c(O)c(O)c1F
- IC50 [1]: 35 nM
- Activity [8]: Active
- Activity [9]: 90%
- Activity [10]: 79%
- Activity [11]: Active
- Activity [12]: Active
- Activity [13]: Active
- Activity [14]: Active

Compound: O=C(O[C@@H]1Cc2c(O)cc(O)cc2O[C@H]1c1cc(O)c(O)cc1F)c1cc(O)c(O)c(O)c1F
- IC50 [1]: 115 nM

Compound: O=C(O[C@@H]1Cc2c(O)cc(O)cc2O[C@H]1c1cc(O)c(O)c(O)c1F)c1cc(O)c(O)c(O)c1F
- IC50 [1]: 54 nM

Compound: O=C(O[C@@H]1Cc2c(O)cc(O)cc2O[C@H]1c1cc(O)c(O)c(O)c1)c1ccc(O)c(O)c1O
- IC50 [1]: 108 nM
